Earlier results as cited in US6514992B1, “Caspases and apoptosis” (SmithKline Beecham Corporation, priority 1998, dated 2003).

Test system: osteoclasts of murine bone marrow cultures
Conditions: murine bone marrow cultures grown for 6 days in vitro

TGF-β1: cytokine cited as inducing apoptosis in osteoclasts of murine bone marrow cultures
apoptosis induced in osteoclasts: approx. 30%
